Data from patent US8377894B2, “Drug and food or drink for improving pancreatic functions” (Morinaga Milk Industry Co., Ltd., priority 2005, dated 2013).
Where two headings read alike, the source gives them in different places.

Legend:
[1] = test system: db/db mice; experiment: Pancreatic tissue protecting action: number and maximum area of Langerhans islets in pancreatic sections of db/db mice, Test Example 2; type: in vivo; settings: for Maximum area of Langerhans islets relative to that observed in the negative test / Number of Langerhans islets relative to negative sample-administered mice: 1 μg, 43rd day of continuous administration; for The numbers of Langerhans islets in sections on 43rd day of administration / Maximum area of Langerhans islets on administration: male db/db mice, 1 μg orally once a day for 42 days; for The numbers of Langerhans islets in sections on 43rd day of administration: hematoxylin-eosin stained pancreatic sections; for Maximum area of Langerhans islets on administration: pancreatic sections
Protocol: The final DMSO concentration was adjusted to 0.2%. […] On the 43rd day of the continuous administration, the pancreas was extracted, divided into three portions of upstream, midstream and downstream from the duodenum side, and fixed with a formalin solution, and then paraffin blocks were prepared in a conventional manner. Section slides were prepared from the paraffin blocks, and subjected to hematoxylin-eosin staining. The numbers of Langerhans islets existing on the sections of the 3 position of the pancreas, and area of Langerhans islet having the maximum area on each section were measured by using an ocular micrometer on a microscope (“ECLIPSE E600”, NIKON CORP.).

[2] = test system: db/db mice; settings: for Pancreatic function protecting effect: 0.1 μg/animal; for Pancreatic function protecting effect / Serum insulin level relative to that observed in the negative test: 43rd day of continuous administration; for Serum insulin level relative to that observed in the negative test: 1 μg/animal; for Serum insulin levels on 43rd day of administration: male db/db mice, ELISA
Protocol: This test was performed in order to evaluate the pancreatic endocrine gland cell function (insulin production ability) protecting action of a compound having the cyclolanostane skeleton by using db/db mice known as a model animal of pancreatic hypofunction or pancreatic tissue dysfunction.
In this test, 6-week old male db/db mice (purchased from Clea Japan, Inc.) were used. These mice were divided into groups, each consisting of 7 animals. Each test sample was dissolved in DMSO, and the concentration was adjusted to 0.1 or 1 μg/mL with physiological saline. The final DMSO concentration was adjusted to 0.2%. The pancreatic disorder model mice were orally administered with 1 mL of the test sample once a day everyday for 42 days with a sonde. The serum insulin level was measured on the 43rd day of the continuous administration by using Lbis insulin mouse ELISA kit (Shibayagi Co., Ltd).

[3] = 0.1 μg/animal orally once a day for 42 days
[4] = 1 μg/animal orally once a day for 42 days

Row | SMILES | Maximum area of Langerhans islets relative to that observed in the negative test [1] | Number of Langerhans islets relative to negative sample-administered mice [1] | The numbers of Langerhans islets in sections on 43rd day of administration [1] | Maximum area of Langerhans islets on administration [1] | Pancreatic function protecting effect [2] | Serum insulin level relative to that observed in the negative test [2] | Serum insulin levels on 43rd day of administration [2, 3] | Serum insulin levels on 43rd day of administration [2, 4]
1 | C=C(CCC(C)C1CCC2(C)C3CCC4C(C)(C)C(O)CCC45CC35CCC12C)C(C)C (stereo not shown) [Test sample 2, 24-methylene-9,19-cyclolanostan-3-ol] | 3.1 times | 148% | 59.6 ± 11.6 piece | 140.0 ± 102.8 × 10^3 μm^2 | any significant pancreatic function protecting effect was not observed | 170% | 1.94 ± 0.56 ng/mL | 3.39 ± 1.35 ng/mL
2 | CC(C)CCCC(C)C1CCC2(C)C3CCC4C(C)(C)C(O)CCC45CC35CCC12C (stereo not shown) [Test sample 1, 9,19-cyclolanostan-3-ol] | 1.8 times | 149% | 60.0 ± 14.8 piece | 78.6 ± 3.3 × 10^3 μm^2 | any significant pancreatic function protecting effect was not observed | 160% | 1.74 ± 0.26 ng/mL | 3.19 ± 0.78 ng/mL
